The subject of the test is malignant primary or metastatic tumors involving the CNS. The experiment in a line: Clinical and radiological tumor response (Macdonald criteria), immune modulating regimen in addition to standard chemoradiotherapy. The class given is in vivo, human. As to conditions: CNS melanoma subject, ipilimumab with radiotherapy, before the regimen. As for the experimental part:
Subjects used in the larger study were diagnosed with different primary or metastatic tumors involving the central nervous system: glioblastoma, carcinoma, or lymphoma. The oral immunomodulation regimen was offered to subjects in addition to standard therapy.
Samples were collected at scheduled clinic visits. […] Radiology studies were performed as part of standard evaluation.

Regarding ipilimumab, the “Disease course on prior therapy” value is “progressed”.

Source of the values: US11559500B2, “Compositions and formulations for treatment of malignancies” (Neugate Pharma, LLC, priority 2017, dated 2023).
